The text below walks through data of patent publication US9957261B2 (Hoffmann-La Roche Inc., priority 2014, dated 2018).

The target in one test is rat TAAR1 (Rattus norvegicus (Rat), UniProt Q923Y9). Nature of the test: Radioligand binding assay on rat TAAR1. Conditions: rat TAAR1, membranes of stably transfected HEK-293 cells; second value of mouse/rat pair. In outline: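 Competition binding with [3H]-(S)-4-[(ethyl-phenyl-amino)-methyl]-4,5-dihydro-oxazol-2-ylamine on membranes from HEK293 cells stably expressing rat TAAR1, in HEPES-NaOH pH 7.4. Compounds spanned 10 pM-10 μM in duplicate, incubated 1 h at 4 °C, with nonspecific binding set by 10 μM unlabeled ligand. Filtration followed by scintillation counting.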
Chain of rat TAAR1 (Q923Y9 whole entry): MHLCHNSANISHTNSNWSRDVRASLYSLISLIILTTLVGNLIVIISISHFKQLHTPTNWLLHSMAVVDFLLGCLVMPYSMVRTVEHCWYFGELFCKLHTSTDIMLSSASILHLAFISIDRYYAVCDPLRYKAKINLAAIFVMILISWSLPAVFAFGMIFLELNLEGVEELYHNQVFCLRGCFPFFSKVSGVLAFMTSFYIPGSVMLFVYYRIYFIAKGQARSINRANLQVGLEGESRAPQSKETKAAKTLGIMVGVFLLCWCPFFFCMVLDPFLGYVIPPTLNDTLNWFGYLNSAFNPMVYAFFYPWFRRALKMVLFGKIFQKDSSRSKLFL

In a further test the target is mouse TAAR1 (Mus musculus (Mouse), UniProt Q923Y8). In words: Radioligand binding assay on mouse TAAR1. Conditions: mouse TAAR1, membranes of stably transfected HEK-293 cells; first value of mouse/rat pair. In outline: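 Membranes from HEK293 cells stably expressing mouse TAAR1, in HEPES-NaOH pH 7.4; displacement of ³H-(S)-4-[(ethyl-phenyl-amino)-methyl]-4,5-dihydro-oxazol-2-ylamine, nonspecific binding with 10 μM unlabeled ligand.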
Chain of mouse TAAR1 (Q923Y8 whole entry): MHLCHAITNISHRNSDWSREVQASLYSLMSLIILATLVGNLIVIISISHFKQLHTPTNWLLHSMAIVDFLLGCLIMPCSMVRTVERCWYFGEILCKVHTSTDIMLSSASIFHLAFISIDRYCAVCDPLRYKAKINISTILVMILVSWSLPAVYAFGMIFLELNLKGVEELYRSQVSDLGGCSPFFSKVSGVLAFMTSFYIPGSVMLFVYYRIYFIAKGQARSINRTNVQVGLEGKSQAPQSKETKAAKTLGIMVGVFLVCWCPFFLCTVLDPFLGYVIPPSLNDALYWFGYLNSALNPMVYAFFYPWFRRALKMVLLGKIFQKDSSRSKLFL

The structures appear in SMILES notation.

Broadly, the Ki is the equilibrium dissociation constant of an inhibitor or competing ligand from its target. The low end stands for a stronger hold on the target, the high end for a looser hold on the target. Turning to `N[C@@H]1CCc2cc(C(=O)Nc3cccc(OC(F)(F)F)c3)ccc2C1` [Example 78, (R)-6-Amino-N-(3-(trifluoromethoxy)phenyl)-5,6,7,8-tetrahydronaphthalene-2-carboxamide], the values for the Ki on rat TAAR1 and at mouse TAAR1 were 0.0044 µM and 0.0073 µM, respectively.
The matching figures for `N[C@H]1CCc2cc(C(=O)Nc3cccc(OC(F)(F)F)c3)ccc2C1` [Example 79, (S)-6-Amino-N-(3-(trifluoromethoxy)phenyl)-5,6,7,8-tetrahydronaphthalene-2-carboxamide]: 0.0009 µM and 0.0008 µM.
As to `N[C@H]1COc2cc(Nc3ncc(C(F)(F)F)cn3)ccc2C1` [Example 80, (R)—N7-(5-(Trifluoromethyl)pyrimidin-2-yl)chroman-3,7-diamine], the Ki at rat TAAR1 was found to be 0.0196 µM; at mouse TAAR1, 0.0163 µM.
`CCOc1[nH]nc(C(=O)Nc2ccc3c(c2)OC[C@H](N)C3)c1C` [Example 81, (R)—N-(3-Aminochroman-7-yl)-5-ethoxy-4-methyl-1H-pyrazole-3-carboxamide]: the Ki was determined as 0.0277 µM on rat TAAR1 and 0.0082 µM at mouse TAAR1.
The matching figures for `N[C@H]1COc2cc(NC(=O)c3nccc(Cl)n3)ccc2C1` [Example 82, (R)—N-(3-Aminochroman-7-yl)-4-chloropyrimidine-2-carboxamide]: 0.511 µM and 0.173 µM.
The matching figures for `Cc1nc(-c2ccc(C(=O)Nc3ccc4c(c3)OC[C@H](N)C4)cc2)cs1` [Example 83, (R)—N-(3-Aminochroman-7-yl)-4-(2-methylthiazol-4-yl)benzamide]: 0.0034 µM and 0.0018 µM.
The matching figures for `N[C@H]1COc2cc(NC(=O)c3ncc(C(F)(F)F)cn3)ccc2C1` [Example 84, (R)—N-(3-Aminochroman-7-yl)-5-(trifluoromethyl)pyrimidine-2-carboxamide]: 0.0758 µM and 0.0371 µM.
On to `Cn1nc(C(=O)Nc2ccc3c(c2)OC[C@H](N)C3)cc1-c1cccs1` [Example 85, (R)—N-(3-Aminochroman-7-yl)-1-methyl-5-(thiophen-2-yl)-1H-pyrazole-3-carboxamide], for which the Ki is 0.0061 µM on rat TAAR1 and 0.0009 µM at mouse TAAR1.
The matching figures for `N#Cc1ccc(C(=O)Nc2ccc3c(c2)OC[C@H](N)C3)cc1F` [Example 86, (R)—N-(3-Aminochroman-7-yl)-4-cyano-3-fluorobenzamide]: 0.0044 µM and 0.0026 µM.
The matching figures for `N[C@H]1COc2cc(NC(=O)c3ccc(F)c(F)c3)ccc2C1` [Example 87, (R)—N-(3-Aminochroman-7-yl)-3,4-difluorobenzamide]: 0.0189 µM and 0.0009 µM.
As to `CCc1n[nH]c(C(=O)Nc2ccc3c(c2)OC[C@H](N)C3)c1C` [Example 88, (R)—N-(3-Aminochroman-7-yl)-3-ethyl-4-methyl-1H-pyrazole-5-carboxamide], the Ki on rat TAAR1 is 0.0119 µM; at mouse TAAR1, 0.0083 µM.
The matching figures for `Cc1cc(C(=O)Nc2ccc3c(c2)OC[C@H](N)C3)cc(Cl)n1` [Example 89, (R)—N-(3-Aminochroman-7-yl)-2-chloro-6-methylisonicotinamide]: 0.0243 µM and 0.0088 µM.
For `N[C@H]1COc2cc(NC(=O)c3ccnc(C(F)(F)F)c3)ccc2C1` [Example 90, (R)—N-(3-Aminochroman-7-yl)-2-(trifluoromethyl)isonicotinamide], the inhibition constant (Ki) on rat TAAR1 was 0.0096 µM; at mouse TAAR1 it was 0.0091 µM.
In the case of `N[C@H]1COc2cc(NC(=O)c3cc(Cl)nc(Cl)c3)ccc2C1` [Example 91, (R)—N-(3-Aminochroman-7-yl)-2,6-dichloroisonicotinamide], the figures for the inhibition constant Ki on rat TAAR1 and on mouse TAAR1 were 0.0077 µM and 0.0035 µM, respectively.
For `CCn1nc(C(=O)Nc2ccc3c(c2)OC[C@H](N)C3)c(Br)c1OCC(F)F` [Example 92, (R)—N-(3-Aminochroman-7-yl)-4-bromo-5-(2,2-difluoroethoxy)-1-ethyl-1H-pyrazole-3-carboxamide], the inhibition constant (Ki) on rat TAAR1 amounted to 0.0023 µM; on mouse TAAR1 it was 0.0151 µM.
`N[C@H]1COc2cc(Nc3ncc(Cl)cn3)ccc2C1` [Example 93, (R)—N7-(5-Chloropyrimidin-2-yl)chroman-3,7-diamine]: the inhibition constant (Ki) on rat TAAR1 was determined as 0.0374 µM; on mouse TAAR1, 0.042 µM.
For the compound `COc1cccc(Nc2ccc3c(c2)CC[C@H](N)C3)c1` [Example 94, (S)—N6-(3-Methoxyphenyl)-1,2,3,4-tetrahydronaphthalene-2,6-diamine], the inhibition constant (Ki) on rat TAAR1 came to 0.0462 µM; on mouse TAAR1 it was 0.0541 µM.
